Data reported in ChEMBL document CHEMBL1123973, “Renin inhibitors containing hydrophilic groups. Tetrapeptides with enhanced aqueous solubility and nanomolar potency” (J Med Chem, 1988).
In brackets after ≈: the same amount, converted by molar mass. *1 amine or outer side, *2 acyl side, *3 side chain or, on linkers, in order; H or OH if unused. Where a SMILES comes first, the peptide text is derived from it. [ ]: non-standard residue; d: D form. The star is where a group is joined. ξ: configuration not given here. Sta = CC(C)C[C@H](N)[C@@H](O)CC(=O)O; X1 = CC(C)CC(N[*:1])C(O)CC(=O)[*:2]; ξPhg = NC(C(=O)O)c1ccccc1; Boc = CC(C)(C)OC(=O)*; NHBn = c1ccc(CN*)cc1

How the values were obtained:
[1] = Partition coefficient (logD) (octanol/citric acid-phosphate buffer)
physchem [2] = details: S
physchem [3] = details: phosphate buffer, pH 7.4, S
Description: Solubility (phosphate buffer, pH 7.4)

Sus scrofa [4] = species: Sus scrofa; assay: Concentration required for 50% inhibition of porcine kidney renin at 10e-7 nM of the compound
Renin (Homo sapiens) = target: T1, Renin (Homo sapiens) (UniProt P00797); assay: Concentration required for 50% inhibition of human plasma renin at 10e-6 nM of the compound; format: cell-free
T1 sequence (whole entry): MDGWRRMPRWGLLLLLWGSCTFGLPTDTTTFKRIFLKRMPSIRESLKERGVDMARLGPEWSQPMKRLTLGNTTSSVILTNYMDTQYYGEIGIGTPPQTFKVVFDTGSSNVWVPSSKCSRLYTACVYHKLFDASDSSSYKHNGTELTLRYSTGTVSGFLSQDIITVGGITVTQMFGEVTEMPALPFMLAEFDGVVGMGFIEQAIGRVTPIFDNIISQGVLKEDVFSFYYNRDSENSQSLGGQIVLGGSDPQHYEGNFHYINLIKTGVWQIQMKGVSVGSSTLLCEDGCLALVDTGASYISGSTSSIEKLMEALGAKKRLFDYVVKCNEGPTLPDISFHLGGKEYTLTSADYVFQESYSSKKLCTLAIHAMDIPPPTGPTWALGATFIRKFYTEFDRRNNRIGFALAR

[5] = test system: Renin (Canis lupus familiaris); assay: Concentration required for 50% inhibition of renin at 10e-6 M of the compound
Sus scrofa [6] = species: Sus scrofa; assay: Concentration required for 50% inhibition of porcine kidney renin at 10e-7 (nM) concentration
Renin = target: T2, Renin (Homo sapiens, UniProt P00797); assay: Concentration required for 50% inhibition of human plasma renin; format: cell-free
T2 sequence (P00797 whole entry): T1 sequence (whole entry)

[7] = target: Renin (Canis lupus familiaris); assay: Inhibition of renin
Renin (Sus scrofa) = assay: Inhibition of porcine kidney renin
Sus scrofa [8] = species: Sus scrofa; assay: Concentration required for 50% inhibition of porcine kidney renin at 10e-6 (nM) concentration
[9] = test system: Renin (Canis lupus familiaris); assay: Concentration required for 50% inhibition of renin; 10e-6 (nM)
Sus scrofa [10] = species: Sus scrofa; assay: Concentration required for 50% inhibition of porcine kidney renin; format: functional
[11] = buffer, pH 7.4
Description: Solubility (phosphate buffer, pH 7.4)

Sus scrofa [12] = species: Sus scrofa; assay: Concentration required for 50% inhibition of porcine kidney renin at 10e-7 nM concentration
[13] = test system: Renin (Canis lupus familiaris); assay: Concentration required for 50% inhibition of renin at 10e-6 nM concentration

| Structure (SMILES) | logD [1] | solubility (physchem [2]) | solubility (physchem [3]) | other results |
| --- | --- | --- | --- | --- |
| CC(C)CC(NC(=O)[C@H](Cc1cnc[nH]1)NC(=O)[C@H](Cc1ccccc1)NC(=O)OC(C)(C)C)C(O)CC(=O)N[C@@H](CC(C)C)C(=O)NCc1cccc(OCC(=O)O)c1 (some centres not stated) | > 2 | 270 µM (≈ 226 µg/mL) | 1800 µM (≈ 1500 µg/mL) |  |
| CC(C)CC(NC(=O)[C@H](Cc1c[nH]cn1)NC(=O)[C@H](Cc1ccccc1)NC(=O)OC(C)(C)C)C(O)CC(=O)N[C@@H](CC(C)C)C(=O)NCCC(N)C(=O)O (stereo in doubt; 16) |  |  |  | inhibition (Sus scrofa [4]): 0%; inhibition (Renin (Homo sapiens)): 25%; inhibition [5]: 15% |
| CC(C)CC(NC(=O)[C@H](Cc1c[nH]cn1)NC(=O)[C@H](Cc1ccccc1)NC(=O)OC(C)(C)C)C(O)CC(=O)N[C@@H](CC(C)C)C(=O)NCc1cc[n+]([O-])cc1 (some centres not stated) |  |  |  | inhibition (Sus scrofa [6]): 29% |
| CC(C)CC(NC(=O)[C@H](Cc1c[nH]cn1)NC(=O)[C@H](Cc1ccccc1)NC(=O)OC(C)(C)C)C(O)CC(=O)N[C@@H](CC(C)C)C(=O)NCCN=C(N)N (some centres not stated) | 0.322 | 24000 µM (≈ 18200 µg/mL) | 11000 µM (≈ 8330 µg/mL) | IC50 (Renin): 64 nM; IC50 (Renin (Sus scrofa)): 710 nM; inhibition [5]: 32% |
| CC(C)CC(NC(=O)[C@H](Cc1c[nH]cn1)NC(=O)[C@H](Cc1ccccc1)NC(=O)OC(C)(C)C)C(O)CC(=O)N[C@@H](CC(C)C)C(=O)NCCN (some centres not stated) |  |  |  | inhibition (Sus scrofa [8]): 31%; inhibition [9]: 32% |
| CC(C)CC(NC(=O)[C@H](Cc1cnc[nH]1)NC(=O)[C@H](Cc1ccccc1)NC(=O)OC(C)(C)C)C(O)CC(=O)N[C@@H](CC(C)C)C(=O)NCCCN(CCO)CCO (some centres not stated) | 1.4 | 960 µM (≈ 784 µg/mL) | 4300 µM (≈ 3510 µg/mL) | IC50 (Sus scrofa [10]): 900 nM; IC50 (Renin): 170 nM |
| CC(C)CC(NC(=O)[C@H](Cc1cnc[nH]1)NC(=O)[C@H](Cc1ccccc1)NC(=O)OC(C)(C)C)C(O)CC(=O)N[C@@H](CC(C)C)C(=O)NCCN (some centres not stated) | 0.949 | 2600 µM (≈ 1860 µg/mL) | 4900 µM (≈ 3500 µg/mL) | IC50 (Renin): 140 nM |
| CC(C)C[C@H](NC(=O)CC(O)C(CC1CCCCC1)NC(=O)[C@H](Cc1cnc[nH]1)NC(=O)[C@H](Cc1ccccc1)NC(=O)OC(C)(C)C)C(=O)NCc1ccncc1 (some centres not stated) | > 2 |  | < 10 µM |  |
| CC(C)CC(NC(=O)[C@H](Cc1cnc[nH]1)NC(=O)[C@H](Cc1ccccc1)NC(=O)OC(C)(C)C)C(O)CC(=O)N[C@@H](CC(C)C)C(=O)NCc1cc[n+]([O-])cc1 (some centres not stated) |  | 6500 µM (≈ 5060 µg/mL) | 4200 µM (≈ 3270 µg/mL) |  |
| CC(C)CC(NC(=O)[C@H](Cc1c[nH]cn1)NC(=O)[C@H](Cc1ccccc1)NC(=O)OC(C)(C)C)C(O)CC(=O)N[C@@H](CC(C)C)C(=O)NCCC(N)C(=O)O (stereo in doubt; 17) [listing 2 of 2 here] |  |  |  | inhibition (Sus scrofa [8]): 0%; inhibition (Renin (Homo sapiens)): 8%; inhibition [9]: 22% |
| CC(C)C[C@H](NC(=O)CC(O)C(CC1CCCCC1)NC(=O)[C@H](Cc1cnc[nH]1)NC(=O)[C@H](Cc1ccccc1)NC(=O)OC(C)(C)C)C(=O)NCc1cccc(OCC(=O)O)c1 (some centres not stated) | > 2 | 30 µM (≈ 26.3 µg/mL) | 210 µM (≈ 184 µg/mL) |  |
| CC(C)CC(NC(=O)[C@H](Cc1cnc[nH]1)NC(=O)[C@H](Cc1ccccc1)NC(=O)OC(C)(C)C)C(O)CC(=O)N[C@@H](CC(C)C)C(=O)NCc1cccc(CN=C(N)N)c1 (some centres not stated) | 1.03 | 3000 µM (≈ 2500 µg/mL) | 930 µM (≈ 775 µg/mL) |  |
| CC(C)C[C@H](NC(=O)CC(O)C(CC1CCCCC1)NC(=O)[C@H](Cc1c[nH]cn1)NC(=O)[C@H](Cc1ccccc1)NC(=O)OC(C)(C)C)C(=O)NCc1cccc(CN=C(N)N)c1 (some centres not stated) | > 2 | > 250 µM | 40 µM (≈ 34.9 µg/mL) |  |
| CC(C)CC(NC(=O)[C@H](Cc1cnc[nH]1)NC(=O)[C@H](Cc1ccccc1)NC(=O)OC(C)(C)C)C(O)CC(=O)N[C@@H](CC(C)C)C(=O)NCc1cccc(CN)c1 (some centres not stated) | 1.89 | 880 µM (≈ 696 µg/mL) | 1400 µM (≈ 1110 µg/mL) | IC50 (Renin): 9 nM; IC50 [7]: 110 nM; IC50 (Renin (Sus scrofa)): 54 nM |

The next lines start with results.

| logD [1] | solubility (physchem [2]) | solubility (physchem [3]) | Structure (SMILES) | other results |
| --- | --- | --- | --- | --- |
| > 2 | < 20 µM | < 20 µM | CC(C)C[C@H](NC(=O)C[C@H](O)[C@H](CC(C)C)NC(=O)[C@H](Cc1c[nH]cn1)NC(=O)[C@H](Cc1ccccc1)NC(=O)OC(C)(C)C)C(=O)N[C@@H](Cc1ccccc1)C(N)=O (Boc-FH[Sta]LF-NH2) |  |
| > 2 | < 10 µM | < 10 µM | CC(C)CC(NC(=O)[C@H](Cc1c[nH]cn1)NC(=O)[C@H](Cc1ccccc1)NC(=O)OC(C)(C)C)C(O)CC(=O)N[C@@H](CC(C)C)C(=O)N1CCN(Cc2ccccc2)CC1 (some centres not stated) | IC50 (Renin): 127 nM; IC50 [7]: 310 nM; IC50 (Renin (Sus scrofa)): 280 nM |
| > 2 | < 10 µM | < 10 µM | CC(C)C[C@H](NC(=O)C[C@H](O)[C@H](CC(C)C)NC(=O)[C@H](Cc1c[nH]cn1)NC(=O)[C@H](Cc1ccccc1)NC(=O)OC(C)(C)C)C(=O)NCc1ccccc1 (Boc-FH[Sta]L-NHBn) |  |
| > 2 | 890 µM (≈ 705 µg/mL) | 400 µM (≈ 317 µg/mL) | CC(C)CC(NC(=O)[C@H](Cc1c[nH]cn1)NC(=O)[C@H](Cc1ccccc1)NC(=O)OC(C)(C)C)C(O)CC(=O)N[C@@H](CC(C)C)C(=O)NCC(N)c1ccccn1 (some centres not stated) |  |
| > 2 | 380 µM (≈ 290 µg/mL) | 180 µM (≈ 137 µg/mL) | CC(C)CC(NC(=O)[C@H](Cc1c[nH]cn1)NC(=O)[C@H](Cc1ccccc1)NC(=O)OC(C)(C)C)C(O)CC(=O)N[C@@H](CC(C)C)C(=O)NCc1ccccn1 (some centres not stated) |  |
| 1.03 | 3400 µM (≈ 2630 µg/mL) |  | CC(C)CC(NC(=O)[C@H](Cc1c[nH]cn1)NC(=O)[C@H](Cc1ccccc1)NC(=O)OC(C)(C)C)C(O)CC(=O)N[C@@H](CC(C)C)C(=O)NCCC(N)C(=O)O (stereo in doubt; 17) [listing 1 of 2 here] | S [11]: 1400 µM |
| 1.22 | 740 µM (≈ 596 µg/mL) | 2200 µM (≈ 1770 µg/mL) | CC(C)CC(NC(=O)[C@H](Cc1c[nH]cn1)NC(=O)[C@H](Cc1ccccc1)NC(=O)OC(C)(C)C)C(O)CC(=O)N[C@@H](CC(C)C)C(=O)NC(C(=O)O)c1ccccc1 (some centres not stated) (Boc-FH[X1]L[ξPhg]-OH) | inhibition (Sus scrofa [4]): 0%; inhibition (Renin (Homo sapiens)): 44%; inhibition [5]: 45% |
| > 2 | 440 µM (≈ 336 µg/mL) | 340 µM (≈ 259 µg/mL) | CC(C)CC(NC(=O)[C@H](Cc1c[nH]cn1)NC(=O)[C@H](Cc1ccccc1)NC(=O)OC(C)(C)C)C(O)CC(=O)N[C@@H](CC(C)C)C(=O)NCc1ccncc1 (some centres not stated) |  |
| 1.83 | 390 µM (≈ 331 µg/mL) | 1500 µM (≈ 1270 µg/mL) | CC(C)CC(NC(=O)[C@H](Cc1c[nH]cn1)NC(=O)[C@H](Cc1ccccc1)NC(=O)OC(C)(C)C)C(O)CC(=O)N[C@@H](CC(C)C)C(=O)NC(Cc1cccc(CN)c1)C(=O)O (some centres not stated) | inhibition (Sus scrofa [12]): 0%; IC50 (Renin): 880 nM; inhibition [13]: 18% |
